Measured values taken from US20130079349A1 (JANSSEN PHARMACEUTICA NV, priority 2010, published 2013).

Tests used:
Abeta 1-42 = assay: Cellular αLisa assay in SKNBE2 cells, Abeta 1-42; assay type: cell-based; conditions: human neuroblastoma SKNBE2 expressing hAPP695, incubated for 18 hours; for IC50: Homo sapiens, SKNBE2, 18 h, read-out: Cellular αlisa assay in SKNBE2 cells Aβ42 pIC50 (converted)
Protocol: (§1) In two αLisa assays the levels of Abeta total and Abeta 1-42 produced and secreted into the medium of human neuroblastoma SKNBE2 cells are quantified. The assay is based on the human neuroblastoma SKNBE2 expressing the wild type Amyloid Precursor Protein (hAPP695). The compounds are diluted and added to these cells, incubated for 18 hours and then measurements of Abeta 1-42 and Abeta total are taken. Abeta total and Abeta 1-42 are measured by sandwich αLisa. αLisa is a sandwich assay using biotinylated antibody AbN/25 attached to streptavidin coated beads and antibody Ab4G8 or cAb42/26 conjugated acceptor beads for the detection of Abeta total and Abeta 1-42 respectively. In the presence of Abeta total or Abeta 1-42, the beads come into close proximity. The excitation of the donor beads provokes the release of singlet oxygen molecules that trigger a cascade of energy transfer in the acceptor beads, resulting in light emission. Light emission is measured after 1 hour incubation (excitation at […] and emission at 615 nm).
(§2) A best-fit curve is fitted by a minimum sum of squares method to the plot of %Controlmin versus compound concentration.

BACE1 = BACE1 (Homo sapiens, UniProt P56817); assay: Biochemical FRET based assay; conditions: recombinant BACE1 1 μg/ml, 120 minutes at room temperature, pH 5.0; read-out: Biochemical FRET based assay pIC50 (converted)
BACE1, sequence (P56817 46-501): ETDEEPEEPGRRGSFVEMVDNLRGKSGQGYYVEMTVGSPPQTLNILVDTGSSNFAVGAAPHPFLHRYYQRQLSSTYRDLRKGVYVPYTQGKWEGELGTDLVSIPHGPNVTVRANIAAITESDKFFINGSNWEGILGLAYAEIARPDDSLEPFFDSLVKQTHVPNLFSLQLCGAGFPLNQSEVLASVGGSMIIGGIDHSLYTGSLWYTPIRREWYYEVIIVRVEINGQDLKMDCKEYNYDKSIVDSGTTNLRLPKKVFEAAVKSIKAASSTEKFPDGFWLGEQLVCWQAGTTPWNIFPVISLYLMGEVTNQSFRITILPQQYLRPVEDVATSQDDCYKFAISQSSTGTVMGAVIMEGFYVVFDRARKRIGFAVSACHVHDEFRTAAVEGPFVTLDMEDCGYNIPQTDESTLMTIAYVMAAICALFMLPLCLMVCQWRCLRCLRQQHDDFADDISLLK
Excerpt: This assay is a Fluorescence Resonance Energy Transfer Assay (FRET) based assay. The substrate for this assay is an APP derived 13 amino acids peptide that contains the ‘Swedish’ Lys-Met/Asn-Leu mutation of the amyloid precursor protein (APP) beta-secretase cleavage site. This substrate also contains two fluorophores: (7-methoxycoumarin-4-yl) acetic acid (Mca) is a fluorescent donor with excitation wavelength at 320 nm and emission at 405 nm and 2,4-Dinitrophenyl (Dnp) is a proprietary quencher acceptor. […] Upon cleavage by BACE1, the fluorophore Mca is separated from the quenching group Dnp, restoring the full fluorescence yield of the donor. The increase in fluorescence is linearly related to the rate of proteolysis.
Briefly in a 384-well format recombinant BACE1 protein in a final concentration of 1 μg/ml is incubated for 120 minutes at room temperature with 10 μm substrate in incubation buffer (40 mM Citrate buffer pH 5.0, 0.04% PEG, 4% DMSO) in the absence or presence of compound. Next the amount of proteolysis is directly measured by fluorescence measurement at T=0 and T=120 (excitation at 320 nm and emission at 405 nm). Results are expressed in RFU (relative fluorescence units), as difference between T120 and T0.

Abeta total = assay: Cellular αLisa assay in SKNBE2 cells, Abeta total; assay type: cell-based; conditions: human neuroblastoma SKNBE2 expressing hAPP695, incubated for 18 hours; for IC50: Homo sapiens, SKNBE2, 18 h, read-out: Cellular αlisa assay in SKNBE2 cells Aβtotal pIC50 (converted)
Protocol: as §1, §2

Structure (SMILES) | IC50 (Abeta 1-42) [µM] | IC50 (BACE1) [µM] | IC50 (Abeta total) [µM] | Cellular αlisa assay in SKNBE2 cells Aβ42 pIC50 (Abeta 1-42) | Cellular αlisa assay in SKNBE2 cells Aβtotal pIC50 (Abeta total) | melting point [°C]
Cc1cnc(C(=O)Nc2cccc(C3(C)N=C(N)CN(C)C3=O)c2)cn1 (racemic) [Compound 6, rac-5-methyl-pyrazine-2-carboxylic acid [3-(6-amino-2,4-dimethyl-3-oxo-2,3,4,5-tetrahydro-pyrazin-2-yl)-phenyl]-amide] | 1.26 | 7.08 | 1.15 |  |  | 
COc1cncc(-c2cccc(C3(C)N=C(N)CN(C)C3=O)c2)c1 (racemic) [Compound 2, rac-5-amino-3-[3-(5-methoxy-pyridin-3-yl)-phenyl]-1,3-dimethyl-3,6-dihydro-1H-pyrazin-2-one] | 1.66 | 10.5 | 1.51 |  |  | 
CN1CC(N)=NC(C)(c2cccc(NC(=O)c3ccc(Cl)cn3)c2)C1=O (racemic) [Compound 3, rac-5-chloro-pyridine-2-carboxylic acid [3-(6-amino-2,4-dimethyl-3-oxo-2,3,4,5-tetrahydro-pyrazin-2-yl)-phenyl]-amide] | 0.0646 |  | 0.0275 |  |  | 
CN1CC(N)=NC(C)(c2cccc(NC(=O)c3ccc(Cl)cn3)c2)C1=O (single isomer, unassigned) [Compound 5, (R*)-5-chloro-pyridine-2-carboxylic acid [3-(6-amino-2,4-dimethyl-3-oxo-2,3,4,5-tetrahydro-pyrazin-2-yl)-phenyl]-amide] |  |  |  | 7.44 | 7.43 | 
CN1CC(N)=NC(C)(c2cccc(NC(=O)c3ccc(Cl)cn3)c2)C1=O (single isomer, unassigned) [Compound 4, (S*)-5-chloro-pyridine-2-carboxylic acid [3-(6-amino-2,4-dimethyl-3-oxo-2,3,4,5-tetrahydro-pyrazin-2-yl)-phenyl]-amide] |  |  |  | <5 | <5 | 
CN1CC(N)=NC(C)(c2cccc(-c3cncnc3)c2)C1=O (racemic) [Compound 1, rac-5-amino-1,3-dimethyl-3-(3-pyrimidin-5-yl-phenyl)-3,6-dihydro-1H-pyrazin-2-one] | 4.47 | 20.4 | 3.89 |  |  | 223.4
CCN1CC(N)=NC(C)(c2cc(-c3cncc(OC)c3)c(F)cc2F)C1=O (racemic) [Compound 9, rac-5-amino-3-[2,4-difluoro-5-(5-methoxy-pyridin-3-yl)-phenyl]-1-ethyl-3-methyl-3,6-dihydro-1H-pyrazin-2-one] | > 10 | > 30.2 | 9.12 |  |  | 81.8
